The structures appear in SMILES notation.

The target of experiment [1] is T1, Glutamate carboxypeptidase 2 (Homo sapiens, UniProt Q04609). As to the kind of experiment: Inhibition of human recombinant NAALADase.
In experiment [2] the target is T1, Glutamate carboxypeptidase 2. The experiment can be described thus: Inhibition of NAALADase expressed in LNCaP human prostate cancer cells. The experiment is classed as cell-based.

T1 sequence (Q04609 whole entry): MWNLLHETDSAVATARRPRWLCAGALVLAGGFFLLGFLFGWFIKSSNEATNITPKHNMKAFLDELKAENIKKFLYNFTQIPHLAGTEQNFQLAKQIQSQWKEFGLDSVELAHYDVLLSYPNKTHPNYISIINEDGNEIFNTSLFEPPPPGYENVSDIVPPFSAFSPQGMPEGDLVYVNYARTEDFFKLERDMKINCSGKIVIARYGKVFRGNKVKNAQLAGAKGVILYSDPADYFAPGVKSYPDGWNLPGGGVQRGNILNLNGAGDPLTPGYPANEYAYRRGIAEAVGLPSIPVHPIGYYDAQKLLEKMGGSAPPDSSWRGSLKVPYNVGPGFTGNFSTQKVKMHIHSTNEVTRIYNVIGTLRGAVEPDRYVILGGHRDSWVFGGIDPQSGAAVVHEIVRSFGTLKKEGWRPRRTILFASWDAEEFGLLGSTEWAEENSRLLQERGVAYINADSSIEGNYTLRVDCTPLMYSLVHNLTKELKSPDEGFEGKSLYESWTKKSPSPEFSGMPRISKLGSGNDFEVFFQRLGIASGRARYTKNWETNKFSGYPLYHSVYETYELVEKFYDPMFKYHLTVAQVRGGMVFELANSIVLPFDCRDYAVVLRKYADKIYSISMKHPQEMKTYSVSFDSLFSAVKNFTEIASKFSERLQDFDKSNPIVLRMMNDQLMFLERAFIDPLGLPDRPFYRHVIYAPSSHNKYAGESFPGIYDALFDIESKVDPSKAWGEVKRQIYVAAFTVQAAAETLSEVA

One may read the IC50 as the point on the concentration scale where inhibition reaches its midpoint. For the molecule `CC(=O)N[C@@H](CCCN(O)C(C)=O)C(=O)N[C@@H](CCCN(O)C(C)=O)C(=O)N[C@@H](CCCN(O)C(C)=O)C(=O)NCCCC(=O)c1ccc(C(=O)NCC(=O)Nc2ccc(CCOP(=O)(O)C[C@@H](CCC(=O)O)C(=O)O)cc2)cc1`, in experiment [1], the IC50 was 4 nM.
`O=C(O)CCC(CP(=O)(O)OCc1ccccc1)C(=O)O` (configuration not stated) came in with an IC50 in experiment [2] of 12.5 nM.
